Assay results reported in patent publication US20130274258A1, “CARBAZOLE AND CARBOLINE DERIVATIVES, AND PREPARATION AND THERAPEUTIC APPLICATIONS THEREOF” (PHILIP MORRIS PRODUCTS S.A., priority 2010, published 2013).

Tests used:
purified porcine tubulin = purified porcine tubulin (Sus scrofa, UniProt P02550+P02554); assay: Inhibition of 3H-labeled colchicine binding to purified tubulin, scintillation proximity assay; conditions: graded doses
Procedure: A series of compounds according to the invention and C14 vincristine and colchicine were tested for their capacity to inhibit ^3H-labeled colchicine binding to purified tubulin. Briefly, a limiting amount of tritium-labeled colchicine and graded doses of test compounds were added to purified porcine tubulin. After an incubation period, radioactivity associated with tubulin was determined using a scintillation proximity assay. […] By showing that these compounds interact with the colchicine binding site, it differentiates them from the tubulin inhibitors of the Vinca alkaloid- and taxane-types. The results also indicate that the compounds of the invention can be used in combination with the Vinca alkaloid- and taxane-types of tubulin inhibitors since they bind to a different aspect of tubulin, and likely affect tubulin polymerization via a different mechanism. The results also indicate that the compounds of the invention can be used even in patients who are refractory or non-responsive to other tubulin inhibitors, such as the tubulin inhibitors of the Vinca alkaloid- and taxane-types.

[1] = Pharmacokinetics after intravenous injection, plasma concentration; assay type: in vivo; conditions: mice, 15 mg/kg intravenous
Procedure: The pharmacokinetics of E3 and E35 were investigated. Mice intravenously injected with 15 mg/kg of E3 were bled after 0, 1, 5, 10, 20, 30, 60, 120 and 480 minutes. […] For E35, mice intravenously injected with 30 mg/kg of […] were bled after 0, 1, 5, 10, 20, 30, 60, 120 and 480 minutes. […] Concentration then decreased steadily over the 8 hours of the study. During the first four hours after injection, circulating concentrations of E3 and E35 were found largely similar.

Jurkat cells [2] = assay: Jurkat cell viability, resazurin (Alamar Blue) assay; assay type: cell-based; conditions: Homo sapiens, Jurkat
Procedure: The compounds were tested for pharmacological activity. In each of the tests, each compound was tested at […] in duplicates. […] The percentage of response relative to the DMSO control was then calculated for the mean value of the duplicates of each test. The values of the three tests were finally averaged and the standard deviations calculated.
Jurkat cells (10'000 cells/well) were incubated in the presence of various concentrations of compounds, doxorubicin or staurosporine. Twenty-two hours later, cells were incubated with resazurin (20 μg/ml) for 4 hours and fluorescence was measured at 590 nm.

caspase 3 and 7 = assay: Apoptosis induction in Jurkat cells, caspase 3 and 7 assay; assay type: cell-based
Procedure: Compounds were assessed for their ability to induce apoptosis of Jurkat cells at 2 and 10 micromolar after 4 and 22 hours.
In order to firmly establish that the compounds of the invention cause cytotoxicity through apoptosis, IC50 of five compounds of the invention, doxorubicin and staurosporin were determined in the caspase assays; results are presented in Table 2. Importantly, the IC50 determined in the Alamar Blue and in the caspase assays were largely overlapping.

colon carcinoma HCT116 = assay: Xenograft model in nude mice, colon carcinoma HCT116; assay type: in vivo, human
Procedure: (§1) The compounds of the invention were evaluated in human tumor xenograft mouse models. Nude mice were subcutaneously implanted with tumor cells (melanoma A2058, colon carcinoma HCT116, fibrosarcoma HT1080 and acute myelocytic leukemia MV114) and when the tumor reached a volume of about 100-150 mm^3, treatment was initiated. Tumor growth was followed over time until tumor volume reached 1000-1500 mm^3 or up to 60 days. An example of how tumor developed over time when the animals were administered or not with E3 three times once a week (qwk×3) is presented in FIG. 7. […]

fibrosarcoma HT1080 = assay: Xenograft model in nude mice, fibrosarcoma HT1080; assay type: in vivo, human
Procedure: as §1

[3] = test system: panel of human tumor cell lines; assay: Sensitivity of a panel of human tumor cell lines, Alamar Blue; assay type: cell-based; conditions: graded doses, 22 hours + 4 hours Alamar Blue
Procedure: Sensitivity and resistance of a panel of human tumor cell lines to treatment with E3 were investigated. An optimal number of cells (usually between 2'000 and 5'000 for adherent cells and 10'000 for cells growing in suspension) from the different tumor lines were treated with graded doses of E3. After 22 hours, Alamar Blue was added following the instructions provided by the manufacturer (Invitrogen). Four hours later, fluorescence of the wells was determined at 590 nm.

[4] = Solubilization in intravenous formulation; assay type: physicochemical; conditions: aqueous with cosolvent or surfactant or cyclodextrin; 5% Cremophor and 5% ethanol in water
From the text: This formulation was then used for the subsequent animal studies (maximal tolerated dose, pharmacokinetics and efficacy in cancer models).

melanoma A2058 = assay: Xenograft model in nude mice, melanoma A2058; assay type: in vivo, human
Procedure: as §1

human tumor xenograft = assay: Human tumor xenograft mouse models, summary over models; assay type: in vivo; conditions: nude mice, three times once a week (qwk×3), FIG. 7
Procedure: as §1

[5] = test system: acute myelocytic leukemia MV114; assay: Xenograft model in nude mice, acute myelocytic leukemia MV114; assay type: in vivo, human
Procedure: as §1

Jurkat cells [6] = assay: Annexin V staining of Jurkat cells by flow cytometry; assay type: cell-based; conditions: Homo sapiens, 22 hours, 0.005 to 10 μM, read-out: half-maximal annexin V staining
Procedure: Jurkat cells were cultured for 22 hours in the presence of E3 at 1.1 μM from a stock solution at 10 mM in DMSO or in the presence of graded concentrations of E3 (0.005 to 10 μM). Then, the cell's were stained with phycoerythrin-labeled annexin V following the instructions of the manufacturer (Millipore) and analyzed by flow cytometry (Guava, Millipore) to determine annexin V staining.

[7] = median, endpoint = death or defined tumor volume, 23 without treatment

Sequence of purified porcine tubulin (P02554 whole entry): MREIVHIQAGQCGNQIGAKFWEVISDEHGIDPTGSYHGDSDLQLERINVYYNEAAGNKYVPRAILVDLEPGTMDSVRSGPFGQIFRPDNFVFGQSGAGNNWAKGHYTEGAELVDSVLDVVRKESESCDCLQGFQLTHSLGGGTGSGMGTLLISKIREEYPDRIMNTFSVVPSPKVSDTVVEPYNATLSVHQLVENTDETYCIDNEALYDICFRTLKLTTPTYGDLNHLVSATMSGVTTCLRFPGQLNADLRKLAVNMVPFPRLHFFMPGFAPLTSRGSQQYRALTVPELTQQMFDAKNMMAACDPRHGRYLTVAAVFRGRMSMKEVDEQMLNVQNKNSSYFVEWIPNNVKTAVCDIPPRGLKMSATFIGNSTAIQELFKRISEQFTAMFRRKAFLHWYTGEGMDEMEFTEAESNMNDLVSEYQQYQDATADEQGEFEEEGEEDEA
Sequence of purified porcine tubulin (P02550 whole entry): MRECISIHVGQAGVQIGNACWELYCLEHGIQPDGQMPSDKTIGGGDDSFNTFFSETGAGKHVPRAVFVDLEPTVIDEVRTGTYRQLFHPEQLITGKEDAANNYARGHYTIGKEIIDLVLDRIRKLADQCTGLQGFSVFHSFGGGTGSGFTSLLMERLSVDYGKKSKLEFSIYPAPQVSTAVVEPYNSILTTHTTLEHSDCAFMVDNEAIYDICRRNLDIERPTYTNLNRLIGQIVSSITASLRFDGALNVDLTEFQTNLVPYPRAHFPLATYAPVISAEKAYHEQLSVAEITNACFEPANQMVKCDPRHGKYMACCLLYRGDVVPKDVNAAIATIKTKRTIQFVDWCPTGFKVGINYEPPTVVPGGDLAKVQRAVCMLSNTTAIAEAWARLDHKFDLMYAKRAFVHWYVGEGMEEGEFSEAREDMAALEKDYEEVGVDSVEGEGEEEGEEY

Cc1nccc2c1[nH]c1ccc(-c3cc(Cl)cc(Cl)c3)cc12 [Example E3, 6-(3,5-dichlorophenyl)-1-methyl-9H-pyrido[3,4-b]indole]
inhibition of 3H-labeled colchicine binding to tubulin (purified porcine tubulin): inhibited binding of colchicine | exposure (plasma concentration) for several hours [1]: 3 to 10 µg/mL | concentration at 1 min ([1]; mouse, plasma, 1 minute after injection): 60000 ng/mL | concentration at 20 min ([1]; mouse, plasma, 20 minutes): 8000 ng/mL | concentration at 8 h ([1]; mouse, plasma, 8 hours): 3000 ng/mL | IC50 (Jurkat cells [2]): 89 nM | caspase 3 and 7 activity compared to solvent control (%) (caspase 3 and 7; 2 μM after 4 h): −13.6% | caspase 3 and 7 activity compared to solvent control (%) (caspase 3 and 7; 2 μM after 22 h): 689.0% | caspase 3 and 7 activity compared to solvent control (%) (caspase 3 and 7; 10 μM after 4 h): 12.7% | caspase 3 and 7 activity compared to solvent control (%) (caspase 3 and 7; 10 μM after 22 h): 743.7% | IC50 (caspase 3 and 7; Homo sapiens, Jurkat cells, caspase 3/7 assay): 0.054 µM | % time delay to reach study endpoint relative to no treatment (colon carcinoma HCT116; best treatment): 57% | Days to reach study endpoint with best treatment (colon carcinoma HCT116; [7]): 36 days | % time delay to reach study endpoint relative to no treatment (fibrosarcoma HT1080; best treatment): 91% | Days to reach study endpoint with best treatment (fibrosarcoma HT1080; [7]): 44 days | sensitivity of tumor cell lines of hematopoietic origin versus other cell lines [3]: more sensitive than the other cell lines | solubility [4]: ≤ 3300 µg/mL | % time delay to reach study endpoint relative to no treatment (melanoma A2058; best treatment): 22% | Days to reach study endpoint with best treatment (melanoma A2058; [7]): 28 days | effect on tumor growth (human tumor xenograft): delayed tumor growth | % time delay to reach study endpoint relative to no treatment ([5]; best treatment): 52% | Days to reach study endpoint with best treatment ([5]; median, endpoint = death or defined tumor volume, 21 without treatment): 32 days | EC50 (Jurkat cells [6]): 100 to 200 nM
